Data on 24 compounds can be found in US8163929B2, “Dihydropyridone amides as P2X7 modulators” (Roche Palo Alto LLC, priority 2008, dated 2012).

The term pIC50 denotes −log10 of the IC50, conventionally taken in molar units.

The target of this test is T1, P2X7 (UniProt Q99572).
T1 sequence (Q99572 1-595): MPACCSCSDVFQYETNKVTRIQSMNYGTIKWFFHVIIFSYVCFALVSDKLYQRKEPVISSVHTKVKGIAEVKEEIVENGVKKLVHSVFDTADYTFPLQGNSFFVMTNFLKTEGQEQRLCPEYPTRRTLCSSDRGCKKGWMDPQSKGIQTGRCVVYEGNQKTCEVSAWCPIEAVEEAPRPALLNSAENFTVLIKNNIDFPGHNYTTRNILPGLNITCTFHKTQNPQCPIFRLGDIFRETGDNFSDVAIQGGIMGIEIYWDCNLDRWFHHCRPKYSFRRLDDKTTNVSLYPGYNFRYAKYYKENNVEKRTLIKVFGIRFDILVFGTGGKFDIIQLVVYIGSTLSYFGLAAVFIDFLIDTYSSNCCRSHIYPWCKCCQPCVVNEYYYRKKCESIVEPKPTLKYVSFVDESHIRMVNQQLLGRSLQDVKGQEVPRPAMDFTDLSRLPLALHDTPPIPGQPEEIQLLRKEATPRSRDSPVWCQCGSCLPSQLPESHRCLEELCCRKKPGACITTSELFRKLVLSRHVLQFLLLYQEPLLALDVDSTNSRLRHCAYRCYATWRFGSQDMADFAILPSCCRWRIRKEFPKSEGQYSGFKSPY
As to the kind of experiment: P2X7 activity of Table 1. It counts as cell-based. Particulars: pIC50 values for P2X7. The method in brief:
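FLIPR calcium flux with fluo-3 in 1321N1 cells expressing human P2X7 and HEK293 cells expressing rat P2X7, in HBSS with 2 mM CaCl2 and 2.5 mM probenecid. Antagonist pre-incubated 20 min at room temperature, then BzATP added (100 μM human, 5 μM rat). Peak response over 5 min normalised to 5 μM ionomycin.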
As for `Cc1ccc(-c2ccn[nH]c2=O)cc1NC(=O)C1=CNC(=O)C[C@H]1c1ccc(F)cc1` [Compound 56, (S)-4-(4-Fluoro-phenyl)-6-oxo-1,4,5,6-tetrahydro-pyridine-3-carboxylic acid [2-methyl-5-(3-oxo-2,3-dihydro-pyridazin-4-yl)-phenyl]-amide], the negative logarithm of the IC50 (pIC50) is recorded as 8.256.
In the case of `Cc1ccc(-c2cscn2)cc1NC(=O)C1=CNC(=O)C[C@H]1c1ccc(F)cc1` [Compound 57, (S)-4-(4-Fluoro-phenyl)-6-oxo-1,4,5,6-tetrahydro-pyridine-3-carboxylic acid (2-methyl-5-thiazol-4-yl-phenyl)-amide], the pIC50 is given as 8.06.
The value for `Cc1nc(-c2ccc(C)c(NC(=O)C3=CNC(=O)C[C@H]3c3ccc(F)cc3)c2)cs1` [Compound 58, (S)-4-(4-Fluoro-phenyl)-6-oxo-1,4,5,6-tetrahydro-pyridine-3-carboxylic acid [2-methyl-5-(2-methyl-thiazol-4-yl)-phenyl]-amide] was 7.87.
The value for `Cc1ccc(-c2ccncc2)cc1NC(=O)C1=CNC(=O)C[C@H]1c1ccc(F)cc1` [Compound 59, (S)-4-(4-Fluoro-phenyl)-6-oxo-1,4,5,6-tetrahydro-pyridine-3-carboxylic acid (2-methyl-5-pyridin-4-yl-phenyl)-amide] was 7.22; that for `CCn1c(C)nnc1-c1ccc(C)c(NC(=O)C2=CNC(=O)C[C@H]2c2ccc(F)cc2)c1` [Compound 60, (S)-4-(4-Fluoro-phenyl)-6-oxo-1,4,5,6-tetrahydro-pyridine-3-carboxylic acid [5-(4-ethyl-5-methyl-4H-[1,2,4]triazol-3-yl)-2-methyl-phenyl]-amide] was 6.535; that for `Cc1ccc(-c2cc(C)n(C[C@H](O)CO)n2)cc1NC(=O)C1=CN(C)C(=O)C[C@H]1c1ccc(F)cc1` [Compound 61, (S)-4-(4-Fluoro-phenyl)-1-methyl-6-oxo-1,4,5,6-tetrahydro-pyridine-3-carboxylic acid {5-[1-((S)-2,3-dihydroxy-propyl)-5-methyl-1H-pyrazol-3-yl]-2-methyl-phenyl}-amide] was 7.255.
`Cc1ccc(-c2cc(C3CC3)[nH]n2)cc1NC(=O)C1=CNC(=O)C[C@H]1c1ccc(F)cc1` [Compound 62, (S)-4-(4-Fluoro-phenyl)-6-oxo-1,4,5,6-tetrahydro-pyridine-3-carboxylic acid [5-(5-cyclopropyl-1H-pyrazol-3-yl)-2-methyl-phenyl]-amide] showed a pIC50 of 6.935.
The same measure for `Cc1ccc(-c2ccn(C)n2)cc1NC(=O)C1=CNC(=O)C[C@H]1c1cccc(F)c1` [Compound 63, (S)-4-(3-Fluoro-phenyl)-6-oxo-1,4,5,6-tetrahydro-pyridine-3-carboxylic acid [2-methyl-5-(1-methyl-1H-pyrazol-3-yl)-phenyl]-amide]: 7.965.
The value for `Cc1ccc(-c2cc(C)n(C[C@@H](O)CO)n2)cc1NC(=O)C1=CN(C)C(=O)C[C@H]1c1ccc(F)cc1` [Compound 64, (S)-4-(4-Fluoro-phenyl)-1-methyl-6-oxo-1,4,5,6-tetrahydro-pyridine-3-carboxylic acid {5-[1-((R)-2,3-dihydroxy-propyl)-5-methyl-1H-pyrazol-3-yl]-2-methyl-phenyl}-amide] was 7.585.
The value for `Cc1ccc(-c2ccn(C)n2)cc1NC(=O)C1=CNC(=O)C[C@H]1c1ccc(F)cc1` [Compound 65, (S)-4-(4-Fluoro-phenyl)-6-oxo-1,4,5,6-tetrahydro-pyridine-3-carboxylic acid [2-methyl-5-(1-methyl-1H-pyrazol-3-yl)-phenyl]-amide] was 7.705; that for `Cc1ccc(-n2cnnc2)cc1NC(=O)C1=CNC(=O)C[C@H]1c1ccc(F)cc1` [Compound 66, (S)-4-(4-Fluoro-phenyl)-6-oxo-1,4,5,6-tetrahydro-pyridine-3-carboxylic acid (2-methyl-5-[1,2,4]triazol-4-yl-phenyl)-amide] was 5.55.
In turn, `CCn1c(=O)cnn(-c2ccc(C)c(NC(=O)C3=CNC(=O)C[C@H]3c3ccc(F)cc3)c2)c1=O` [Compound 67, (S)-4-(4-Fluoro-phenyl)-6-oxo-1,4,5,6-tetrahydro-pyridine-3-carboxylic acid [5-(4-ethyl-3,5-dioxo-4,5-dihydro-3H-[1,2,4]triazin-2-yl)-2-methyl-phenyl]-amide] showed a pIC50 of 7.575.
The value for `Cc1ccc(-n2ncc(=O)n(C)c2=O)cc1NC(=O)C1=CN(C)C(=O)C[C@H]1c1ccc(F)cc1` [Compound 68, (S)-4-(4-Fluoro-phenyl)-1-methyl-6-oxo-1,4,5,6-tetrahydro-pyridine-3-carboxylic acid [2-methyl-5-(4-methyl-3,5-dioxo-4,5-dihydro-3H-[1,2,4]triazin-2-yl)-phenyl]-amide] was 7.01; that for `Cc1ccc(-c2cc(C)n(CCO)n2)cc1NC(=O)C1=CNC(=O)C[C@H]1c1cccc(F)c1` [Compound 69, (S)-4-(3-Fluoro-phenyl)-6-oxo-1,4,5,6-tetrahydro-pyridine-3-carboxylic acid {5-[1-(2-hydroxy-ethyl)-5-methyl-1H-pyrazol-3-yl]-2-methyl-phenyl}-amide] was 7.92; that for `Cc1ccc(-c2cc(C)n(CCO)n2)cc1NC(=O)C1=CN(C)C(=O)C[C@H]1c1cccc(F)c1` [Compound 70, (S)-4-(3-Fluoro-phenyl)-1-methyl-6-ox-1,4,5,6-tetrahydro-pyridine-3-carboxylic acid {5-[1-(2-hydroxy-ethyl)-5-methyl-1H-pyrazol-3-yl]-2-methyl-phenyl}-amide] was 7.72.
The value for `Cc1ccc(-c2ccnn(C)c2=O)cc1NC(=O)C1=CNC(=O)C[C@H]1c1ccc(F)cc1` [Compound 71, (S)-4-(4-Fluoro-phenyl)-6-oxo-1,4,5,6-tetrahydro-pyridine-3-carboxylic acid [2-methyl-5-(2-methyl-3-oxo-2,3-dihydro-pyridazin-4-yl)-phenyl]-amide] was 8.395; that for `Cc1ccc(-c2ccn[nH]c2=O)cc1NC(=O)C1=CN(C)C(=O)C[C@H]1c1ccc(F)cc1` [Compound 72, (S)-4-(4-Fluoro-phenyl)-1-methyl-6-oxo-1,4,5,6-tetrahydro-pyridine-3-carboxylic acid [2-methyl-5-(3-oxo-2,3-dihydro-pyridazin-4-yl)-phenyl]-amide] was 7.8367.
The same measure for `Cc1ccc(-c2cc(C)n(C[C@@H](C)O)n2)cc1NC(=O)C1=CN(C)C(=O)C[C@H]1c1ccc(F)cc1` [Compound 73, (S)-4-(4-Fluoro-phenyl)-1-methyl-6-oxo-1,4,5,6-tetrahydro-pyridine-3-carboxylic acid {5-[1-((R)-2-hydroxy-propyl)-5-methyl-1H-pyrazol-3-yl]-2-methyl-phenyl}-amide]: 7.255; for `Cc1ccc(-c2cc(C)n(C[C@H](C)O)n2)cc1NC(=O)C1=CN(C)C(=O)C[C@H]1c1ccc(F)cc1` [Compound 74, (S)-4-(4-Fluoro-phenyl)-1-methyl-6-oxo-1,4,5,6-tetrahydro-pyridine-3-carboxylic acid {5-[1-((S)-2-hydroxy-propyl)-5-methyl-1H-pyrazol-3-yl]-2-methyl-phenyl}-amide]: 7.47.
For the compound `COC[C@H](O)Cn1nc(-c2ccc(C)c(NC(=O)C3=CNC(=O)C[C@H]3c3ccc(F)cc3)c2)cc1C` [Compound 75, (S)-4-(4-Fluoro-phenyl)-6-oxo-1,4,5,6-tetrahydro-pyridine-3-carboxylic acid {5-[1-((R)-2-hydroxy-3-methoxy-propyl)-5-methyl-1H-pyrazol-3-yl]-2-methyl-phenyl}-amide], the negative-log IC50 (pIC50) turned out to be 7.72.
The same measure for `COC[C@H](O)Cn1nc(-c2ccc(C)c(NC(=O)C3=CN(C)C(=O)C[C@H]3c3ccc(F)cc3)c2)cc1C` [Compound 76, (S)-4-(4-Fluoro-phenyl)-1-methyl-6-oxo-1,4,5,6-tetrahydro-pyridine-3-carboxylic acid {5-[1-((R)-2-hydroxy-3-methoxy-propyl)-5-methyl-1H-pyrazol-3-yl]-2-methyl-phenyl}-amide]: 7.45; for `COC[C@H](O)Cn1c(=O)cnn(-c2ccc(C)c(NC(=O)C3=CN(C)C(=O)C[C@H]3c3ccc(F)cc3)c2)c1=O` [Compound 77, (S)-4-(4-Fluoro-phenyl)-1-methyl-6-oxo-1,4,5,6-tetrahydro-pyridine-3-carboxylic acid {5-[4-((R)-2-hydroxy-3-methoxy-propyl)-3,5-dioxo-4,5-dihydro-3H-[1,2,4]triazin-2-yl]-2-methyl-phenyl}-amide]: 7.5367; for `Cc1ccc(=O)n(-c2ccc(C)c(NC(=O)C3=CNC(=O)C[C@H]3c3ccc(F)cc3)c2)n1` [Compound 78, (S)-4-(4-Fluoro-phenyl)-6-oxo-1,4,5,6-tetrahydro-pyridine-3-carboxylic acid [2-methyl-5-(3-methyl-6-oxo-6H-pyridazin-1-yl)-phenyl]-amide]: 7.31.
`Cc1cncc(-c2ccc(C)c(NC(=O)C3=CNC(=O)C[C@H]3c3ccc(F)cc3)c2)n1` [Compound 79, (S)-4-(4-Fluoro-phenyl)-6-oxo-1,4,5,6-tetrahydro-pyridine-3-carboxylic acid [2-methyl-5-(6-methyl-pyrazin-2-yl)-phenyl]-amide] showed a pIC50 of 6.58.
